This passage reports IC50 and LC50 results from ChEMBL document CHEMBL1177644, “16-bromoepiandrosterone, an activator of the mammalian immune system, inhibits glucose 6-phosphate dehydrogenase from Trypanosoma cruzi and is toxic to these parasites grown in culture” (Bioorg Med Chem, 2010).

By IC50 is commonly meant the concentration that gives 50% inhibition. Read a low IC50 as greater potency.

Assay [1] is described as follows: Inhibition of His-tagged Trypanosoma cruzi G6PDH expressed in Escherichia coli BL21 by spectrophotometry.
In another assay the test system is Trypanosoma cruzi. Briefly: Antitrypanosomal activity against Trypanosoma cruzi Y epimastigotes assessed as viability after 72 hrs by MTS assay. Conditions: read-out: LD50 (the source's name). The assay is classed as functional.

`C[C@]12CC[C@H](O)C[C@@H]1CC[C@@H]1[C@@H]2CC[C@]2(C)C(=O)[C@H](Br)C[C@@H]12` [16.ALPHA.-BROMOEPIANDROSTERONE] displayed an IC50 in assay [1] of 0.086 µM. Besides, the LC50 in the assay on Trypanosoma cruzi turned out to be 12.4 µM.
On the same counts, the results for `C[C@]12CC[C@H](O)C[C@@H]1CC[C@@H]1[C@@H]2CC[C@]2(C)C(=O)CC[C@@H]12` [EPIANDROSTERONE] are 5.6 µM and 36.5 µM.
The corresponding values for `C[C@]12CC[C@H](O)CC1=CC[C@@H]1[C@@H]2CC[C@]2(C)C(=O)[C@H](Br)C[C@@H]12` are 0.216 µM and 20.6 µM.
Molecule `C[C@]12CC[C@H](O)CC1=CC[C@@H]1[C@@H]2CC[C@]2(C)C(=O)CC[C@@H]12` [PRASTERONE] gave an IC50 in assay [1] of 25 µM.
